This is an account of results in patent US20200022957A1, “KINASE AND UBIQUITIN LIGASE INHIBITORS AND USES THEREOF” (ALDA S.R.L., priority 2015, published 2020).

Experiment [1] has as its system ATP7B H1069Q. The experiment in a line: Traffic-based screening of ATP7B H1069Q-GFP rescue in HEPG2 cells. The format is cell-based, human. Conditions: HEPG2 cells expressing ATP7B H1069Q-GFP; 24 h. As to the method: (§1) Transiently ATP7B H1069Q-GFP expressing HeLa cells (A), HEPG2 cells and (C) human primary hepatocytes (E) treated with the inhibitors for 24 hours, cells are processed for immunofluorescence assay to measure the arrival of the ATP7B wt and H1069Q mutant from the ER to Golgi compartment. A, C, E) Normalized Golgi fluorescence of ATP7B is measured and plotted (n >50 cells). B, D, F) EC50 and recue effect (%) compared to the level ATP7B WT Golgi fluorescence calculated from (A), (C) and (E) respectively. […] All the inhibitor drugs except SB202190 are in clinical trial for treatment of various other diseases.
(§2) Cells were transfected with ATP7B-WT-GFP or ATP7B-H1069Q-GFP, incubated overnight with 200 μM BCS and/or drugs. Fixed cells were further labeled for TGN46 to mark and visualize the Golgi area under a confocal microscope. Under low copper conditions ATP7B-WT traffics to the Golgi from the ER, while ATP7B-H1069Q is retained within the ER. If the drug treatments induce the rescue of trafficking from the ER to the Golgi, the ATP7B-H1069Q-GFP fluorescence in the Golgi area increases. This is measured by quantifying (in 10 different microscopy fields in 100 cells) the increased in fluorescence of ATP7BWT-GFP or ATP7BH1069Q-GFP in the Golgi area (marked by TGN46) and normalizing this value to total cell fluorescence […]

Experiment [2] deals with ATP7BH1069Q. The experiment in a line: Copper estimation in HepG2 cells overexpressing ATP7BH1069Q. In kind it is cell-based, human. Conditions: 1 μM, 24 hours, 200 μM copper sulphate for the last 2 hours. As to the method: FIG. 14: The VX-745 and BIRB-796 correctors reduce Copper levels in cells expressing ATP7BH1069Q mutant. HepG2 cells overexpressing indicated ATP7B constructs were incubated with 1 μM each of VX-745, BIRB-796 for 24 hours, for the last 2 hours of incubation with the inhibitors 200 μM copper sulphate is added to the cells with or without 100 μM BCS (copper chelator) as indicated. Cells were incubated with HBSS for 3 hours before lysed and used for copper estimation. Fold change in copper normalized to control is plotted (n=4). Both VX-745 and BIRB-796 reduced Copper levels in ATP7BH1069Q expressing cells (BCS is used in the assay as a control for the sensitivity of the assay).
Cells are lysed in RIPA buffer (150 mM NaCl, 1% Triton X-100, 0.5% deoxycholic acid, 0.1% SDS, 20 mM Tris-HCl, pH 7.4). 500 μg of total protein lysate in 100 μl is taken for copper estimation using Copper assay kit (MAK127 sigma-aldrich) according to the manufacturer's protocol.
ATP7B protein functions in the excretion of copper out of cells and tissue. As ATP7B H1069Q trafficking to the plasma membrane is impaired, the cells cannot excrete the copper, which leads to higher level of intracellular copper. If the corrector drugs promote the correct localization of the mutant, then the copper should be excreted, leading to lower intracellular levels.

Experiment [3] relates to ATP7B H1069Q. The experiment in a line: Morphological assay of ATP7B H1069Q exit from ER to Golgi in HeLa cells (fluorescence microscopy). In kind it is cell-based, human. The following applies: HeLa cells expressing ATP7B H1069Q-GFP; 24 h. As to the method: Cells were transfected with ATP7B-WT-GFP or ATP7B-H1069Q-GFP, incubated overnight with 200 μM BCS and/or drugs. Fixed cells were further labeled for TGN46 to mark and visualize the Golgi area under a confocal microscope. Under low copper conditions ATP7B-WT traffics to the Golgi from the ER, while ATP7B-H1069Q is retained within the ER. If the drug treatments induce the rescue of trafficking from the ER to the Golgi, the ATP7B-H1069Q-GFP fluorescence in the Golgi area increases. This is measured by quantifying (in 10 different microscopy fields in 100 cells) the increased in fluorescence of ATP7BWT-GFP or ATP7BH1069Q-GFP in the Golgi area (marked by TGN46) and normalizing this value to total cell fluorescence
CFBE or HeLa cells (in case of ATP7B) were transfected with constructs encoding the indicated mutant proteins and treated with JNKi II for 48 h.

In experiment [4] the test system is ATP7B H1069Q. As to the kind of experiment: Traffic-based screening of ATP7B H1069Q-GFP rescue in human primary hepatocytes. Conditions: human primary hepatocytes expressing ATP7B H1069Q-GFP; 24 h. In kind it is cell-based. The procedure:
as §1, §2

The subject of experiment [5] is F508del-CFTR. As to the kind of experiment: F508del-CFTR proteostasis by western blotting (ER band B / Golgi-processed band C) in CFBE cells. The format is cell-based, human. The following applies: for levels of band B and band C of F508del-CFTR / correction of F508del-CFTR (levels of band C): 48 h; for levels of band B and band C of F508del-CFTR: concentration series. The procedure:
Cells were washed three times in ice-cold Dulbecco's phosphate-buffered saline, and lysed in RIPA buffer (150 mM NaCl, 1% Triton X-100, 0.5% deoxycholic acid, 0.1% SDS, 20 mM Tris-HCl, pH 7.4), supplemented with protease inhibitor cocktail and phosphatase inhibitors. The lysates were clarified by centrifugation at 15000×g for 15 min, and the supernatants were resolved by SDS-PAGE. BCA Protein Assay kit (Pierce) was used to quantitate protein levels before loading. The western blots were decorated with appropriate antibodies and developed using ECL. The blots were then exposed to x-ray films and exposure time was varied to obtain optimal signal. The x-ray films were then scanned and the bands were quantitated using ImageJ gel-analysis tool. The protein concentration and the exposures used for quantitation of the blots were optimized to be in a linear range of detection.
Inventors then turned to experimental validation of the role of the CORE genes in the regulation of F508del-CFTR proteostasis. Experiments were carried out using a characterised biochemical assay that detects both the amount of core-glycosylated CFTR trapped in the ER (band B with Western blotting) and the amount of CFTR fully glycosylated in the Golgi (most of which presumably resides at the PM; band C with Western blotting).

Each structure is given as a SMILES string.

In the case of `Cc1ccc(-n2nc(C(C)(C)C)cc2NC(=O)Nc2ccc(OCCN3CCOCC3)c3ccccc23)cc1` [BIRB-796], the “rescue of ATP7B H1069Q (ER to Golgi)” value in experiment [1] and in experiment [4] was “rescue H1069Q potently” in each case. Moreover, in experiment [2], the “Copper levels in ATP7BH1069Q expressing cells” value is “reduced”. Also, the “rescue of ATP7B H1069Q localization (ER exit to the Golgi compartment)” value (“rescue of ATP7B H1069Q localization” for short) in experiment [3] was “potently rescue”.

Regarding `C=C(c1ccc(C(=O)O)cc1)c1cc2c(cc1C)C(C)(C)CCC2(C)C` [Bexarotene], the “rescue of ATP7B H1069Q localization” value in experiment [3] was “potently rescue”. In addition, the “levels of band B and band C of F508del-CFTR” value in experiment [5] is reported as “robust increases”.

As to `CC(=O)Nc1ccc(C(=O)NC(C)(C)C)cc1` [CPI-1189], the “rescue of ATP7B H1069Q localization” value in experiment [3] was “potently rescue”.

`C=C(C)[C@@H]1CCC(C)=C[C@H]1c1c(O)cc(CCCCC)cc1O` [Cannabidiol]: in experiment [3], the “rescue of ATP7B H1069Q localization” value is reported as “potently rescue”.

On to `CC(O)C(=O)O.CN1CCN(c2ccc3nc(-c4c(N)c5c(F)cccc5[nH]c4=O)[nH]c3c2)CC1` [Dovitinib lactate], for which, in experiment [5], the “levels of band B and band C of F508del-CFTR” value is reported as “robust increases”.

For the compound `Cc1cc(Nc2cc(N3CCN(C)CC3)nc(/C=C/c3ccccc3)n2)n[nH]1` [ENMD-2076], the “rescue of ATP7B H1069Q localization” value in experiment [3] is reported as “potently rescue”.

For `Fc1ccc(C(c2ccc(F)cc2)N2CCN(C/C=C/c3ccccc3)CC2)cc1` [Flunarizine], in experiment [5], the “correction of F508del-CFTR (levels of band C)” value was “increased”.

Take `OO` [H2O2]: the F508del-CFTR levels entry in experiment [5] (H2O2 at non-toxic concentrations, within a few minutes) is on record as “marked drop”.

Turning to `N#Cc1c(NC(=O)c2cccc3ccccc23)sc2c1CCCC2` [JNKi IX], in experiment [5], the “levels of band B and band C of F508del-CFTR” value is reported as “robust increases”.

With `O=[N+]([O-])c1cnc(Sc2nc3ccccc3s2)s1` [JNKi XI], the “levels of band B and band C of F508del-CFTR” value in experiment [5] is given as “robust increases”.

Take `COC(=O)[C@@]1(O)C[C@H]2O[C@]1(C)n1c3ccccc3c3c4c(c5c6ccccc6n2c5c31)C(=O)NC4` [K252a]: in experiment [5], the “correction of F508del-CFTR (levels of band C)” value is reported as “no clear effects”.
